The source of these data is US20040102454A1, “Phenylahistin and the phenylahistin analogs, a new class of anti-tumor compounds” (priority 1998, published 2004).

Converted amounts (≈) assume the structure as drawn. “And” between values parts separate entries of the source, which are not always exact repeats. Equal entries are not always repeated. Where two headings read alike, the source gives them in different places.

The subject of data set [1] is Microtubule protein from bovine brain. Nature of the data set: Microtubule protein polymerization assay (turbidity). Format: biochemical. To be noted: microtubule protein 1.5 mg/ml (Table 4); read-out: IC50 for Microtubule Protein Polymerization. As for the experimental part: Microtubule protein was prepared from bovine brain tissue by two cycles of assembly and disassembly according to the method of Tiwari, S. C. et al. Anal. Biochem, (1993), 215, 96-103. Tubulin was purified from microtubule protein by phosphocellulose chromatography see Algaier, J. et al. Biochim. Biophys. Acta, (1988), 954, 235-43, and tubulin purity was evaluated by polyacrylamide gel electrophoresis, as in Laemmli, U.K., Nature, (1970), […], 680-85. […] Protein concentrations were determined using the Coomassie® Protein Assay Reagent from Pierce (Rockford, Ill.).
Polymerization of microtubule protein was monitored by an increase in turbidity at 37° C. in microtubule assembly buffer containing 100 mM MES, 0.5 mM MgCl2, 1 mM EGTA and 1 mM GTP. See Johnson, K. A. et al., J. Mol. Biol., (1977), 117, 1-31. Polymerization of purified tubulin was measured using the same method except the microtubule assembly buffer contained 4 M glycerol. See Lee, J. C. et al., Biochemistry, (1975), 14, 5183-87. Microtubule protein and tubulin polymerization was initiated by a temperature shift from 0° C. to 37° C. and turbidity was measured on a DU-20 thermocontrolled spectrophotometer from Beckman (Fullerton, Calif.) at 360 nm. Drugs were dissolved in dimethyl sulfoxide (DMSO), which was used in all experiments at a final concentration of 2% (v/v).
For this example, the microtubule protein polymerization assay was performed as follows. Microtubule protein was prepared from bovine brain tissue by two cycles of assembly and disassembly. Polymerization of microtubule protein was monitored by an increase in turbidity at 37° C. in microtubule assembly buffer containing 100 mM MES, 0.5 mM MgCl2, 1 mM EGTA and 1 mM GTP. The polymerization of microtubule protein was initiated by a temperature shift from 0° C. to 37° C. Turbidity was measured on a thermo-controlled spectrophotometer (Beckman DU-20, Fullerton, Calif.) at 360 nm. Compounds were dissolved in DMSO, which was used in all experiments at a final concentration of 2% (v/v).

Data set [2] relates to P388 cells. Nature of the data set: P388 proliferation, Alamar Blue assay. Particulars: Mus musculus, P388; Alamar Blue assay (Table 4); read-out: IC50 for P388 Proliferation. Format: cell-based, murine. As to the method:
For this example, the Alamar Blue™ assay was performed as follows. Exponentially growing P388 cells were seeded into 96-well tissue culture plates (5×10^3 cells/100 μl/well) and cultured in RPMI 1640 medium supplemented with 10% fetal bovine serum for 16 h. Compounds (DMSO solution) were then added to each well at various concentrations, and the cells were cultured for an additional 48 h. Living cells were counted using Alamar Blue™ (BioSource International, Camarillo, Calif.), according to the method of Ahmed, S. A. et al., J. Immunol. Methods, 170, 211 (1994).
In general terms: Alamar Blue is a resazurin reagent that responds to reducing activity.

Data set [3] concerns T. mentagrophytes isolate #2. The data set can be described thus: Antifungal susceptibility testing, broth dilution (NCCLS M38-A). Particulars: 80% reduction in turbidity. Format: cell-based, Trichophyton mentagrophytes. As for the experimental part: (§1) Antifungal susceptibility testing was accomplished according to the methods outlined in the National Committee for Clinical Laboratory Standards, M38-A “Reference Method for Broth Dilution Antifungal Susceptibility Testing of Conidium-Forming Filamentous Fungi; Approved Standard.” This includes testing in RPMI-1640 with glutamine and without bicarbonate, an inoculum size of 0.4-5×10^4, and incubation at 30 or 35° C. for 48 hours. […] Drug concentrations were 0.03-16 μg/ml for the investigational compounds, 0.015-8 μg/ml for itraconazole and griseofulvin.
(§2) The minimum lethal concentration (MLC) was determined by plating […] from the MIC concentration and each concentration above the MIC. […] When a MIC was obtained, a minimum fungicidal concentration (MFC) was determined to assess the fungistatic/fungicidal nature of the compound. […] The compound is scored as fungistatic if the cells are able to resume growth and fungicidal if no regrowth is possible because the compound had killed the organisms.

Data set [4] concerns T. mentagrophytes isolate #1. Described as above. Format: cell-based, Trichophyton mentagrophytes. To be noted: for MIC: 80% reduction in turbidity. As for the experimental part:
as §1, §2

Data set [5] deals with T. rubrum isolate #1. Described as above. Format: cell-based, Trichophyton rubrum. Particulars: T. rubrum isolate #1; for MIC: 80% reduction in turbidity. As for the experimental part: as §1, §2
Data set [6] relates to T. rubrum isolate #2. Described as above. Format: cell-based, Trichophyton rubrum. To be noted: for MIC: 80% reduction in turbidity. As for the experimental part:
as §1, §2

For data set [7], the system named is E. floccosum isolate #1. Described as above. Format: cell-based, Epidermophyton floccosum. To be noted: 80% reduction in turbidity. As to the method: as §1, §2
For data set [8], the system named is E. floccosum isolate #2. Described as above. Format: cell-based, Epidermophyton floccosum. As for the experimental part: as §1, §2
Data set [9] deals with A. fumigatus isolate #1. The description is as above. To be noted: Aspergillus fumigatus, 80% reduction in turbidity. Format: cell-based. As to the method:
as §1, §2

In data set [10] the test system is PARP in Jurkat cells. Nature of the data set: Cleavage of poly(ADP-ribose) polymerase (PARP), western blotting. Format: cell-based. To be noted: 10 hours after exposure. The text has this: In order to assess the ability of t-butyl-phenylahistin to induce apoptosis in Jurkat cells, cleavage of poly(ADP-ribose) polymerase (PARP) was monitored. PARP is a 116 kDa nuclear protein that is one of the main intracellular targets of Caspase-3. The cleavage of PARP generates a stable 89 kDa product, and this process can be easily monitored by western blotting. Cleavage of PARP by caspases is one of the hallmarks of apoptosis, and as such serves as an excellent marker for this process.
(In general: Immunoblotting shows a protein as a band on a membrane.)

Data set [11] deals with bovine brain tubulin. Nature of the data set: [^3H]CLC binding to tubulin and competition assay. As to the method: [^3H]CLC binding to tubulin was evaluated by the ultrafiltration method of Takahashi, M., et al., Biochim. Biophys. […] The concentration of unbound [^3H]CLC in the filtrates was determined using a EcoLite™(+) liquid scintillator from ICN Pharmaceuticals Inc. (Costa Mesa, Calif.). Specific bound [^3H]CLC concentrations were determined by adding an excess (×100) of unlabeled CLC to the reaction mixture.
For the competition assay, bovine brain tubulin (0.2 mg/ml) was incubated in the microtubule assembly buffer with 0.5 μM [^3H]CLC and various concentrations of competitors for 20 min at 37° C. [^3H]CLC binding was measured as described above.

In data set [12] the test system is A. fumigatus isolate #2. Nature of the data set: Antifungal susceptibility testing, broth dilution (NCCLS M38-A). To be noted: Aspergillus fumigatus, 80% reduction in turbidity. Format: cell-based. As for the experimental part: as §1, §2
Background: Dilution methods test growth across graded concentrations, often in twofold steps.

For data set [13], the system named is microtubules in A549 cells. The data set can be described thus: Immunofluorescence staining of microtubules. Format: cell-based, human. To be noted: 6 hours incubation. As for the experimental part: Immunocytochemical staining was performed using the method described by Yahara, I. et al., Cell (1978) 15, 251-259. A549 cells were cultured on glass coverslips and incubated with the test drug for 6 hours. The cells were then fixed with 3.7% formaldehyde for 30 min, permeabilized with 0.2% Triton X-100 for 5 min, and incubated with a mouse monoclonal antibody against α-tubulin (Calbiochem®, Oncogene Research Products, Cambridge, Mass.), followed by incubation with fluorescein isothiocyanate-conjugated goat anti-mouse IgG from Cosmo Bio Co., (Tokyo, Japan), and the cells were examined under an immunofluorescent microscope.

Data set [14] relates to tubulin in Human umbilical vein endothelial cells (HuVEC). The data set can be described thus: Action on microtubule function, staining for α-tubulin. Format: cell-based. Particulars: 2 μM, thirty minutes exposure.
Data set [15] relates to MES-SA (Taxol Sensitive) human uterine sarcoma tumor cell line. Nature of the data set: Drug resistant cell line pair, cytotoxicity. Format: cell-based. Particulars: CsA Pretreat versus No CsA. From the text:
MES-SA (Taxol Sensitive) and MES-SA DX (Taxol Resistant). This cell line expresses elevated mdr-1 mRNA and P-glycoprotein (an extrusion pump mechanism). Pretreatment with cyclosporin-A (CsA) blocks P-glycoprotein and reinstates activity in the resistant cell line for those compounds for which the resistance is due to elevated P-glycoprotein.

The test system of data set [16] is HuVEC monolayer. The data set can be described thus: HuVEC monolayer permeability to FITC-Dextran. To be noted: FITC-Dextran. Format: cell-based, human. From the text:
This vascular collapse is preceded by a rapid induction of vascular cell permeability initially to electrolytes and soon after to large molecules. The enhanced permeability of HuVEC cells to a fluorescent-labeled dextran is used as a proxy assay for vascular collapse.

Data set [17] deals with DU-145 human prostate tumor. The data set can be described thus: DU-145 Human Prostate Tumor Xenograft Model. Format: in vivo, nude mice. To be noted: Taxotere alone. As to the method:
Male mice were implanted s.c. by trocar with fragments of DU-145 tumors harvested from s.c. growing tumors in nude male mice hosts. When the tumors reached ˜5 mm×5 mm ( at about 13-17 days) the animals were matched into treatment and control groups. The remainder of the study proceeded as for the HT-29 model, using taxotere as the standard chemotherapy agent.
In this model unless otherwise noted for the individual study, test compound was administered via the intraperitoneal route on Days 1, 3, 5, 8 and 11 (q3d×5); taxotere was administered intravenously on Days 1, 3 and 5 (q2d×3).
The study involved an assessment of t-butyl-phenyalhistin alone and in combination with taxotere.

Where [18] appears, read: Trichophyton mentagrophytes, read-out: MIC.
Setting [19] is: Trichophyton rubrum, read-out: MIC.

As a reminder, the melting point is the temperature, or range, at which the solid turns liquid. Consider `Cc1[nH]cnc1C=C1NC(=O)C(Cc2ccccc2)NC1=O` (centres unmarked) [Compound 9], for which the melting point was 285 to 286 °C (dec.). Further, in data set [1], the IC50 is over 200 µM. The IC50 in [2] came out at 7.5 µM.

A word on the MIC: it is the least concentration at which growth counts as inhibited. Turning to `CC(C)(C)c1[nH]cnc1/C=C1\NC(=O)[C@H](Cc2ccccc2)NC1=O` [NPI2460], the MIC in data set [3] is over 16 µg/mL; in data set [4] it was 4 µg/mL (≈ 11.8 µM); in data set [5], under 0.03 µg/mL; in [6] it was under 0.03 µg/mL; in [7], over 16 µg/mL. In addition, the MFC was over 16 µg/mL in data set [4], 0.125 µg/mL (≈ 0.369 µM) in [5] and under 0.03 µg/mL in data set [6]. Besides, the “MICs and MFCs” value in data set [8] is over 16 µg/mL.

`CCC(C)n1ncn(-c2ccc(N3CCN(c4ccc(OCC5COC(Cn6cncn6)(c6ccc(Cl)cc6Cl)O5)cc4)CC3)cc2)c1=O` (centres unmarked) [itraconazole, reference compound] registered an MIC in data set [9] of 1 µg/mL (≈ 1.42 µM).

On to `C=CC(C)(C)c1nc[nH]c1/C=C1\NC(=O)C(Cc2ccccc2)NC1=O` (centres unmarked) [Halimide], for which, in [10], the “cleavage of PARP” value is given as “active at inducing cleavage of PARP”.

As to `C=CC(C)(C)c1[nH]cnc1/C=C1\NC(=O)[C@H](Cc2ccccc2)NC1=O` [NPI2350], the MIC in data set [3] is over 16 µg/mL; in data set [4] it was 16 µg/mL (≈ 45.7 µM); in [5], over 16 µg/mL; in [6], 0.16 µg/mL (≈ 0.457 µM); in data set [7], over 16 µg/mL. Moreover, the MFC in [4] and in data set [6] was over 16 µg/mL in each case. The “MICs and MFCs” value in data set [8] is over 16 µg/mL.

With `CC[C@]1(O)C[C@@H]2CN(CCc3c([nH]c4ccccc34)[C@@](C(=O)OC)(c3cc4c(cc3OC)N(C)[C@H]3[C@@](O)(C(=O)OC)[C@H](OC(C)=O)[C@]5(CC)C=CCN6CC[C@]43[C@@H]65)C2)C1` [VLB, vinblastine, reference compound], in data set [11], the “effect on CLC binding to tubulin” value was “slightly enhanced”.

Turning to `COC1=CC(=O)C[C@@H](C)[C@]12Oc1c(Cl)c(OC)cc(OC)c1C2=O` [griseofulvin, reference compound], the minimum inhibitory concentration (MIC) in [3] (setting [18]) is 2 µg/mL (≈ 5.67 µM); in [4] (setting [18]) it was 1 µg/mL (≈ 2.83 µM); in data set [12], 0.5 µg/mL (≈ 1.42 µM); in [5] (setting [19]) it was 0.5 µg/mL (≈ 1.42 µM); in [6] (setting [19]), under 0.015 µg/mL; in data set [7] (Epidermophyton floccosum, read-out: MIC), 2 µg/mL (≈ 5.67 µM). The MFC in data set [8] (Epidermophyton floccosum, read-out: MICs and MFCs) turned out to be 4 µg/mL (≈ 11.3 µM).

`CC(=O)O[C@H]1C(=O)[C@@]2(C)[C@H]([C@H](OC(=O)c3ccccc3)[C@]3(O)C[C@H](OC(=O)[C@H](O)[C@@H](NC(=O)c4ccccc4)c4ccccc4)C(C)=C1C3(C)C)[C@]1(OC(C)=O)CO[C@@H]1C[C@@H]2O` [Taxol, paclitaxel, reference compound]: the “microtubule structure (anti α-tubulin staining)” value in data set [13] was “thick microtubule bundles and multiple bright fluorescent aster formation”. In addition, the microtubule depolymerization entry in data set [14] was “did not induce microtubule depolymerization”. Besides, the “Ratio No CsA” value in data set [15] is 0.6 and 0.4. In addition, in data set [16], the HuVEC monolayer permeability entry was “inactive”.

Take `CC(=O)O[C@@]12CO[C@@H]1C[C@H](O)[C@@]1(C)C(=O)[C@H](O)C3=C(C)[C@@H](OC(=O)[C@H](O)[C@@H](NC(=O)OC(C)(C)C)c4ccccc4)C[C@@](O)([C@@H](OC(=O)c4ccccc4)[C@H]21)C3(C)C` [Taxotere, reference compound]: the “NCI established criterion for a positive effect (TGA 58%)” value in data set [17] is listed as “did not reach the NCI established criterion”.
